Test results published in US8933075B2, “Compounds useful as antiviral agents, compositions, and methods of use” (priority 2010, dated 2015).

These molecules were tested on A/Udorn/72 (H3N2) virus (assay: Plaque assay in MDCK cells: EC50 by reduction of plaque number). Conditions: MDCK.
Type: cell-based, influenza virus
`CCOc1ccc(F)c(F)c1-c1ccc(/C=C2\SC(=S)N(C3CCCC3)C2=O)o1` [Compound 50] was tested, and the EC50 was under 100 nM. Molecule `COc1cc(C)c(-c2ccc(/C=C3\SC(=S)N(C4CCCC4)C3=O)o2)cc1C` [Compound 51] has an EC50 of under 100 nM. For `COc1ccc(-c2ccc(/C=C3\SC(=S)N(C4CCCCC4)C3=O)o2)c(F)c1F` [Compound 52], the EC50 was under 100 nM. `COc1cc(OC)cc(-c2ccc(/C=C3\SC(=S)N(C4CC5CCC4C5)C3=O)[nH]2)c1` (centres unmarked) [Compound 58] gave an EC50 of under 100 nM. With `COc1cc(OC)cc(-c2ccc(/C=C3\SC(=S)N(C4C5CC6CC(C5)CC4C6)C3=O)[nH]2)c1` (centres unmarked) [Compound 59] the EC50 was under 100 nM. Molecule `O=C1/C(=C/c2cn(-c3ccc([N+](=O)[O-])cc3)cn2)SC(=S)N1C1CCCCCCC1` [Compound 62] has an EC50 of 250 to 1000 nM. With `O=C1/C(=C/c2cn(-c3ccc([N+](=O)[O-])cc3)cn2)SC(=S)N1C1CCCCCC1` [Compound 63] the EC50 was 250 to 1000 nM. With `O=C1/C(=C/c2cn(-c3ccc([N+](=O)[O-])cc3)cn2)SC(=S)N1C1CCCCCCCCCCC1` [Compound 64] the EC50 was under 100 nM. `O=C1/C(=C/c2ncc(-c3ccccc3)o2)SC(=S)N1C1CCCCCC1` [Compound 65] showed an EC50 of under 100 nM. Work on `O=C1/C(=C/c2ncc(-c3ccccc3)o2)SC(=S)N1C1CCCCCCC1` [Compound 66] yielded an EC50 of under 100 nM. With `COc1ccc2oc(=O)c(-c3ccc(/C=C4\SC(=S)N(C5CC6CCC5C6)C4=O)o3)c(O)c2c1` (centres unmarked) [Compound 69] the EC50 was 100 to 250 nM. In the case of `COc1ccc2oc(=O)c(-c3ccc(/C=C4\SC(=S)N(C5C6CC7CC(C6)CC5C7)C4=O)o3)c(O)c2c1` (centres unmarked) [Compound 70], the EC50 is reported as 100 to 250 nM. `COc1ccc2c(O)c(-c3ccc(/C=C4\SC(=S)N(C5CC6CCC5C6)C4=O)o3)c(=O)oc2c1OC` (centres unmarked) [Compound 71] gave an EC50 of 100 to 250 nM. For `COc1ccc2c(O)c(-c3ccc(/C=C4\SC(=S)N(C5C6CC7CC(C6)CC5C7)C4=O)o3)c(=O)oc2c1OC` (centres unmarked) [Compound 72], the EC50 was 100 to 250 nM. `COc1ccc2c(O)c(-c3ccc(/C=C4\SC(=S)N(C5CC6CCC5C6)C4=O)o3)c(=O)oc2c1` (centres unmarked) [Compound 73] was tested, and the EC50 was 100 to 250 nM. Molecule `COc1ccc2c(O)c(-c3ccc(/C=C4\SC(=S)N(C5C6CC7CC(C6)CC5C7)C4=O)o3)c(=O)oc2c1` (centres unmarked) [Compound 74] has an EC50 of 100 to 250 nM. Work on `COCOc1cc(=O)oc2ccc(-c3ccc(/C=C4\SC(=S)N(C5C6CC7CC(C6)CC5C7)C4=O)o3)cc12` (centres unmarked) [Compound 75] yielded an EC50 of 250 to 1000 nM. In the case of `COCOc1cc(=O)oc2ccc(-c3ccc(/C=C4\SC(=S)N(C5CC6CCC5C6)C4=O)o3)cc12` (centres unmarked) [Compound 76], the EC50 is reported as 250 to 1000 nM. For `COc1ccc(-c2ccc(/C=C3\SC(=S)N(C4CC5CCC4C5)C3=O)o2)cc1OCC(=O)N[C@@H](Cc1ccc(O)cc1)C(=O)O` (some centres unmarked) [Compound 77], the EC50 was 100 to 250 nM. In the case of `COc1ccc(-c2ccc(/C=C3\SC(=S)N(C4CC5CCC4C5)C3=O)o2)cc1OCC(=O)N[C@@H](CC(C)C)C(=O)O` (some centres unmarked) [Compound 78], the EC50 is reported as under 100 nM. With `COc1ccc(-c2ccc(/C=C3\SC(=S)N(C4CC5CCC4C5)C3=O)o2)cc1OCC(=O)N[C@@H](Cc1ccccc1)C(=O)O` (some centres unmarked) [Compound 79] the EC50 was under 100 nM. With `COc1ccc(-c2ccc(/C=C3\SC(=S)N(C4CC5CCC4C5)C3=O)o2)cc1OCC(=O)N1CCC[C@H]1C(=O)O` (some centres unmarked) [Compound 80] the EC50 was under 100 nM. For `COc1ccc(-c2ccc(/C=C3\SC(=S)N(C4CC5CCC4C5)C3=O)o2)cc1OCC(=O)N[C@@H](CCC(=O)OCc1ccccc1)C(=O)O` (some centres unmarked) [Compound 81], the EC50 was under 100 nM. `COc1ccc(-c2ccc(/C=C3\SC(=S)N(C4CC5CCC4C5)C3=O)o2)cc1OCC(=O)N[C@@H](Cc1cnc[nH]1)C(=O)O` (some centres unmarked) [Compound 82] was tested, and the EC50 was under 100 nM. Molecule `COc1ccc(-c2ccc(/C=C3\SC(=S)N(C4CC5CCC4C5)C3=O)o2)cc1C(=O)N[C@@H](Cc1ccccc1)C(=O)O` (some centres unmarked) [Compound 85] has an EC50 of under 100 nM. `COc1ccc(-c2ccc(/C=C3\SC(=S)N(C4CC5CCC4C5)C3=O)o2)cc1C(=O)N[C@@H](CC(C)C)C(=O)O` (some centres unmarked) [Compound 87] gave an EC50 of under 100 nM. With `COc1ccc(-c2ccc(/C=C3\SC(=S)N(C4CC5CCC4C5)C3=O)o2)cc1C(=O)N[C@@H](Cc1cnc[nH]1)C(=O)O` (some centres unmarked) [Compound 88] the EC50 was under 100 nM. For `COc1ccc(-c2ccc(/C=C3\SC(=S)N(C4CC5CCC4C5)C3=O)o2)cc1C(=O)N1CCC[C@H]1C(=O)O` (some centres unmarked) [Compound 89], the EC50 was under 100 nM. With `COC(=O)C[C@H](NC(=O)c1cc(-c2ccc(/C=C3\SC(=S)N(C4CC5CCC4C5)C3=O)o2)ccc1OC)C(=O)O` (some centres unmarked) [Compound 90] the EC50 was 100 to 250 nM. In the case of `CCOC(=O)[C@@H]1CCCCN1C(=O)c1cc(-c2ccc(/C=C3\SC(=S)N(C4CC5CCC4C5)C3=O)o2)ccc1OC` (some centres unmarked) [Compound 91], the EC50 is reported as under 100 nM. For `O=C1/C(=C/c2oc(-c3ccccc3)cc2CO)SC(=S)N1C1CC2CCC1C2` (centres unmarked) [Compound 93], the EC50 was under 100 nM. For `COc1cc(OC)cc(-c2cc(CCCO)c(/C=C3\SC(=S)N(C4CC5CCC4C5)C3=O)o2)c1` (centres unmarked) [Compound 96], the EC50 was under 100 nM. Work on `COc1cc(OC)cc(-c2cc(CCCOC(C)=O)c(/C=C3\SC(=S)N(C4CC5CCC4C5)C3=O)o2)c1` (centres unmarked) [Compound 97] yielded an EC50 of under 100 nM. In the case of `COc1cc(OC)cc(-c2cc(CCCOC(C)=O)c(/C=C3\SC(=S)N(C4C5CC6CC(C5)CC4C6)C3=O)o2)c1` (centres unmarked) [Compound 98], the EC50 is reported as under 100 nM. With `O=C1/C(=C/c2oc(-c3ccc(Cl)cc3)cc2CCCO)SC(=S)N1C1C2CC3CC(C2)CC1C3` (centres unmarked) [Compound 100] the EC50 was under 100 nM. Work on `O=C1/C(=C/c2oc(-c3ccc(F)cc3)cc2CCCCCO)SC(=S)N1C1CC2CCC1C2` (centres unmarked) [Compound 105] yielded an EC50 of under 100 nM. Work on `O=C1/C(=C/c2oc(-c3ccc(F)cc3)cc2CCCCCO)SC(=S)N1C1C2CC3CC(C2)CC1C3` (centres unmarked) [Compound 106] yielded an EC50 of under 100 nM. In the case of `O=C1/C(=C/c2oc(-c3ccc(F)cc3)cc2CCCCCCO)SC(=S)N1C1CC2CCC1C2` (centres unmarked) [Compound 107], the EC50 is reported as under 100 nM. For `O=C1/C(=C/c2oc(-c3ccc(F)cc3)cc2CCCCCCO)SC(=S)N1C1C2CC3CC(C2)CC1C3` (centres unmarked) [Compound 108], the EC50 was under 100 nM. In the case of `COc1cc(OC)cc(-c2cc(CCCCCO)c(/C=C3\SC(=S)N(C4CC5CCC4C5)C3=O)o2)c1` (centres unmarked) [Compound 109], the EC50 is reported as under 100 nM. Molecule `COc1cc(OC)cc(-c2cc(CCCCCO)c(/C=C3\SC(=S)N(C4C5CC6CC(C5)CC4C6)C3=O)o2)c1` (centres unmarked) [Compound 110] has an EC50 of under 100 nM. `COc1cc(OC)cc(-c2cc(CCCCCCO)c(/C=C3\SC(=S)N(C4CC5CCC4C5)C3=O)o2)c1` (centres unmarked) [Compound 111] showed an EC50 of under 100 nM. Molecule `COc1cc(OC)cc(-c2cc(CCCCCCO)c(/C=C3\SC(=S)N(C4C5CC6CC(C5)CC4C6)C3=O)o2)c1` (centres unmarked) [Compound 112] has an EC50 of under 100 nM. `O=C1/C(=C/c2oc(-c3ccc(F)cc3)cc2CCCCO)SC(=S)N1C1CC2CCC1C2` (centres unmarked) [Compound 115] was tested, and the EC50 was under 100 nM. With `O=C1/C(=C/c2oc(-c3ccc(F)cc3)cc2CCCCO)SC(=S)N1C1C2CC3CC(C2)CC1C3` (centres unmarked) [Compound 116] the EC50 was under 100 nM. With `NCCCc1cc(-c2ccc(F)cc2)oc1/C=C1\SC(=S)N(C2C3CC4CC(C3)CC2C4)C1=O` (centres unmarked) [Compound 126] the EC50 was under 100 nM. Molecule `NCCCc1cc(-c2ccc(F)cc2)oc1/C=C1\SC(=S)N(C2CC3CCC2C3)C1=O` (centres unmarked) [Compound 127] has an EC50 of under 100 nM. `COc1cc(OC)cc(-c2cc(/C=C/C(=O)O)c(/C=C3\SC(=S)N(C4C5CC6CC(C5)CC4C6)C3=O)o2)c1` (centres unmarked) [Compound 131] showed an EC50 of under 100 nM. `COc1cc(OC)cc(-c2cc(CCC(=O)O)c(/C=C3\SC(=S)N(C4CC5CCC4C5)C3=O)o2)c1` (centres unmarked) [Compound 132] was tested, and the EC50 was under 100 nM. For `COc1cc(OC)cc(-c2cc(CCCN(CC(=O)O)CC(=O)O)c(/C=C3\SC(=S)N(C4CC5CCC4C5)C3=O)o2)c1` (centres unmarked) [Compound 133], the EC50 was 100 to 250 nM. `COc1cc(OC)cc(-c2cc(CCCC(C(=O)O)C(=O)O)c(/C=C3\SC(=S)N(C4CC5CCC4C5)C3=O)o2)c1` (centres unmarked) [Compound 134] showed an EC50 of under 100 nM. For `COc1cc(OC)cc(-c2cc(CCCC(C(=O)O)C(=O)O)c(/C=C3\SC(=S)N(C4C5CC6CC(C5)CC4C6)C3=O)o2)c1` (centres unmarked) [Compound 135], the EC50 was 100 to 250 nM. `COc1cc(O)cc(-c2cc(CCCC(C(=O)O)C(=O)O)c(/C=C3\SC(=S)N(C4C5CC6CC(C5)CC4C6)C3=O)o2)c1` (centres unmarked) [Compound 136] showed an EC50 of 100 to 250 nM. `COc1cc(OC)cc(-c2cc(CCCOC(=O)[C@H](CCCNC(=O)OC(C)(C)C)NC(=O)OC(C)(C)C)c(/C=C3\SC(=S)N(C4CC5CCC4C5)C3=O)o2)c1` (some centres unmarked) [Compound 139] gave an EC50 of under 100 nM. Molecule `COc1cc(OC)cc(-c2cc(CCCOC(=O)[C@H](CC(C)C)NC(=O)OCC3c4ccccc4-c4ccccc43)c(/C=C3\SC(=S)N(C4CC5CCC4C5)C3=O)o2)c1` (some centres unmarked) [Compound 141] has an EC50 of 250 to 1000 nM. `COc1cc(OC)cc(-c2cc(CCCOC(=O)[C@H](Cc3ccccc3)NC(=O)OC(C)(C)C)c(/C=C3\SC(=S)N(C4CC5CCC4C5)C3=O)o2)c1` (some centres unmarked) [Compound 142] gave an EC50 of under 100 nM. `COc1cc(OC)cc(-c2cc(CCCOC(=O)[C@@H](NC(=O)OC(C)(C)C)c3ccccc3)c(/C=C3\SC(=S)N(C4CC5CCC4C5)C3=O)o2)c1` (some centres unmarked) [Compound 146] gave an EC50 of under 100 nM. With `CC(C)(C)OC(=O)N[C@@H](CC(N)=O)C(=O)OCCCc1cc(-c2ccc(F)cc2)oc1/C=C1\SC(=S)N(C2CC3CCC2C3)C1=O` (some centres unmarked) [Compound 147] the EC50 was under 100 nM. `CC(C)(C)OC(=O)N[C@@H](CC(N)=O)C(=O)OCCCc1cc(-c2ccc(Cl)cc2)oc1/C=C1\SC(=S)N(C2CC3CCC2C3)C1=O` (some centres unmarked) [Compound 148] gave an EC50 of under 100 nM. `COc1cc(O)cc(-c2cc(CCCOC(=O)[C@H](CC(=O)OC(C)(C)C)NC(=O)OC(C)(C)C)c(/C=C3\SC(=S)N(C4CC5CCC4C5)C3=O)o2)c1` (some centres unmarked) [Compound 149] gave an EC50 of under 100 nM. Molecule `COc1cc(OC)cc(-c2cc(CCCCCOC(=O)[C@H](CC(N)=O)NC(=O)OC(C)(C)C)c(/C=C3\SC(=S)N(C4CC5CCC4C5)C3=O)o2)c1` (some centres unmarked) [Compound 150] has an EC50 of under 100 nM. `COc1cc(OC)cc(-c2cc(CCCOC(=O)[C@@H](N)Cc3ccccc3)c(/C=C3\SC(=S)N(C4CC5CCC4C5)C3=O)o2)c1` (some centres unmarked) [Compound 153] gave an EC50 of under 100 nM. `COc1cc(OC)cc(-c2cc(CCCOC(=O)[C@@H](N)c3ccccc3)c(/C=C3\SC(=S)N(C4CC5CCC4C5)C3=O)o2)c1` (some centres unmarked) [Compound 154] gave an EC50 of under 100 nM. `COc1cc(OC)cc(-c2cc(CCCNC(=O)[C@H](CC(=O)OC(C)(C)C)NC(=O)OC(C)(C)C)c(/C=C3\SC(=S)N(C4CC5CCC4C5)C3=O)o2)c1` (some centres unmarked) [Compound 158] showed an EC50 of under 100 nM. Work on `COc1cc(OC)cc(-c2cc(CCCNC(=O)[C@H](CC(C)C)NC(=O)OCC3c4ccccc4-c4ccccc43)c(/C=C3\SC(=S)N(C4CC5CCC4C5)C3=O)o2)c1` (some centres unmarked) [Compound 159] yielded an EC50 of under 100 nM.
